# Read-outs that look alike come from different tables or passages of the source. Marks after values point to notes of the source that are not given here.
# Legend:
# [1] = system: K. pneumoniae ATCC 700603; assay: Cell membrane permeabilization, propidium iodide flow cytometry; assay type: cell-based, Klebsiella pneumoniae; conditions: compound at its MIC, 40 min, 5 × 10^6 CFU/mL, supplemented M9; mean of n = 3
# Protocol: (§1) An overnight culture of E. coli ATCC 25922, or of K. pneumoniae ATCC 700603, prepared as described above, was diluted to a final concentration of 5 × 10^6 CFU/mL and allowed to adjust for 30 min at 37 °C under shaking. Membrane permeabilization of bacteria was then assessed by incubating bacteria at 37 °C, in a final volume of 1 mL, with varying concentrations of each peptide or antibiotic used for the BONCAT assay. 5 min before the ending of the selected incubation time (40 min), propidium iodide probe was added to the samples to a final concentration of 10 μg/mL before analysis using a flow cytometer. A positive control consisted of E. coli cells dehydrated with ethanol (as described above), while untreated cells were used as negative control. The fluorescence of untreated cells was used to establish the gating for positive PI-stained cells. Fixed bacterial cells, subjected to the click chemistry reaction to link the Alexa Fluor azide 488 probe, were analysed by flow cytometry and, among the gates-selected ones, only those that tested positive for Propidium Iodide, and thus permeabilized, were considered for the calculation of the mean fluorescence intensity (MFI) of the Alexa Fluor azide 488.
# (§2) Samples were analyzed by an Attune NxT® (ThermoFisher) equipped with a blue laser (488 nm) and photomultiplier tubes (PMTs) BL1 (525/50) and BL3 (695/40) to collect fluorescence. All parameters were set in logarithmic scale and the signals were recorded as Area. Forward scattering (FSC) was set to 300 mV, side scattering (SSC) to 350 mV and thresholds to 0.2 for FSC and 0.5 for SSC. The compensation matrix was performed according to the tool software. Hierarchical gates and acquisition flow rate (200 μL/min) were set to avoid coincident events. The files were saved as FCS 3.1 and analysed by FCS Express De Novo software v7. Flow cytometry data are presented as means ± SD from three independent experiments (n = 3).
# [2] = system: E. coli ATCC 25922; assay: as above; assay type: cell-based, Escherichia coli; conditions: for Membrane permeabilization (% PI +cells): compound at its MIC, 40 min, 5 × 10^6 CFU/mL, supplemented M9, mean of n = 3
# Protocol: as §1, with “Membrane” for “An overnight culture of E. coli ATCC 25922, or of K. pneumoniae ATCC 700603, prepared as described above, was diluted to a final concentration of 5 × 10^6 CFU/mL and allowed to adjust for 30 min at 37 °C under shaking. Membrane”
# as §2
# [3] = system: E. coli ATCC 25922; assay: microbe, parasite or virus in culture; assay type: cell-based, Escherichia coli; conditions: for MIC: 18 h, 37 °C, mode of at least three experiments
# Protocol: […] Each peptide, diluted at a starting concentration of 128 μM in supplemented M9 medium was added to the first column of wells of a 96-well round-bottom microplate (Sarstedt, Milan, Italy). Serially two-fold dilution (1:1) were performed across subsequent wells to a final volume of 50 μL. 50 μL of bacterial suspension (1 × 10^7 CFU/mL) were then added to each well, to a final bacterial concentration in each well to 5 × 10^6 CFU/mL per well. Untreated bacterial culture was used as growth control, while 100 μL of uninoculated supplemented M9 medium was used to verify the sterility of the medium. The plates were sealed with parafilm to minimize evaporation and incubated at 37 °C for 18 h. The minimum inhibitory concentration (MIC) was visually determined as the lowest peptide concentration in a well with no visible bacterial growth. Data are reported as the mode of at least three independent experiments.
# [4] = system: E. coli ATCC 25922; assay: Post-antibiotic effect (PAE), growth kinetics after washout; assay type: cell-based, Escherichia coli; conditions: 30 min treatment at MIC, OD600 every hour for 18 h in MHB, mean ± SD, n = 3
# Protocol: An overnight culture of E. coli ATCC 25922, prepared as described above, was diluted to a final concentration of 5 × 10^6 CFU/mL and then incubated at 37 °C for 30 min in the presence or absence of each peptide or antibiotic at various concentrations, with a final volume of 1 mL. To measure the post-antibiotic effect (PAE) of antimicrobials, the compounds were removed from the supernatant by centrifugation (16,000 × g for 5 min) and bacteria were washed and resuspended in 1 mL of fresh supplemented MHB medium, to promote faster growth visible as increased absorbance. 200 μL of each sample was then transferred to a 96-well round-bottom microplate (Sarstedt, Milan, Italy), which was then placed in a Nanoquant Infinite-M200Pro plate reader with stable temperature at 37 °C. Each sample was surrounded by water-filled wells to reduce its own evaporation. Optical density at 600 nm was then recorded for each sample every hour for up to 18 h. PAE was calculated according to [Holfeld et al. (2018)] as the difference between the time needed for a cell culture incubated with an antibiotic substance to reach half-maximum absorbance of the control culture and the time that the control culture needed to reach half-maximum absorbance of the stationary phase. According to this definition, the PAE of each compound (expressed as time) was calculated based on the OD₆₀₀ value of its respective replicate, which corresponded to half of the maximum absorbance reached by the control culture in the stationary phase (at 18 h). The mean PAE values (PAE in hours) of each compound, were obtained by averaging the times from the three independent experiments.
# [5] = system: E. coli ATCC 25922; assay: BONCAT: HPG incorporation into newly synthesized proteins, flow cytometry; assay type: cell-based, Escherichia coli; conditions: compound at MIC; for Fluorescence Intensity (% of Control): 10 min pre-incubation then 30 min HPG, untreated = 100%, mean, n ≥ 3; for Decrease in fluorescence compared to untreated bacteria: 40 min total incubation (10 min + 30 min HPG)
# Protocol: (§3) We used a modified protocol from [Lindivat et al. (2020)]. Briefly, overnight cultures of E. coli ATCC 25922 or K. pneumoniae ATCC 700603, prepared as described above, were diluted to a final concentration of 5×10^6 CFU/mL and allowed to adjust for 30 min at 37 °C. The culture was then incubated at 37 °C in the dark for 10 or 30 min in the presence or absence of each peptide or antibiotic at various concentrations, with a final volume of 1 mL. At this point, only in certain specified experimental assays, the compounds were removed from the supernatant by centrifugation (16,000 × g for 5 min) and bacteria were washed and resuspended in fresh supplemented M9 medium. Then, 32 μL of a 500 μM homopropargylglycine (HPG) solution were added to each sample, resulting in a final concentration of 16 μM in a finale volume of 1 mL. Also included in each assay were two untreated controls containing only bacteria and bacteria treated with 16 μM HPG alone, respectively. All samples were then incubated at 37 °C in the dark for 30 min. After incubation, samples were washed once with 1X filtered Phosphate Buffered Saline (PBS) (centrifuged at 16,000 x g for 5 min) and resuspended in PBS. After washing, samples were fixed with formaldehyde (Sigma Aldrich, USA) to a final concentration of 3% in 1 mL for 1 h at 25 °C. Subsequently, the samples were centrifuged at 16,000 x g for 5 min and resuspended in 1 mL of PBS. If not analysed immediately, the fixed samples were stored at 4 °C prior to performing the click chemistry reaction. Samples were centrifugated at 16,000 x g for 5 min and bacteria cells were dehydrated by ethanol that was added sequentially to achieve a final concentration of 50% (v/v) (3 min of incubation), 80% (v/v) (3 min of incubation), and 95% (v/v) (3 min of incubation). After dehydration, the samples were centrifugated (16,000 × g, 5 min) and resuspended in PBS. For cell analysis by SDS-PAGE, the following variations were implemented: bacterial cells were diluted in supplemented M9 medium to a final density of ~ 1 × 10^9 CFU/mL, and HPG was added to the samples at a final concentration of 160 μM. Bacteria were incubated with HPG for 0, 15, 30, 60, or 120 min at 37 °C in the dark.
# (§4) The click reaction was carried out according to [Rostovtsev et al. (2002)]. 15 μL of a pre-mix solution (prepared as described above) were added to each sample containing fixed bacteria that had incorporated HPG (30 μL of pre-mix solution in case of samples prepared for SDS-PAGE analysis), resulting in the following final concentrations in each sample: 0.1 mM copper sulfate, 0.5 mM Tris (3-hydroxypropyltriazolylmethyl)amine (THPTA), and 2.5 μM Alexa Fluor azide 488. Additionally, 50 μL of freshly prepared 100 mM sodium ascorbate and 50 μL of 100 mM aminoguanidine were added (100 μL in case of samples prepared for SDS-PAGE analysis), bringing the final volume to 1 mL. The samples were gently inverted once to mix and incubated for 30 min in the dark at 25 °C. Finally, each sample was washed with PBS once (centrifuged at 16,000 × g for 5 min) and resuspended in 1 mL PBS.
# as §1, with “Fixed bacterial cells, subjected to the click chemistry reaction to link the Alexa Fluor azide 488 probe, were analysed by flow cytometry and, among the gates-selected ones, only those that tested positive for Propidium Iodide, and thus permeabilized, were considered for the calculation of the mean fluorescence intensity (MFI) of the Alexa Fluor azide 488.” left out
# [6] = system: K. pneumoniae ATCC 700603; assay: microbe, parasite or virus in culture; assay type: cell-based, Klebsiella pneumoniae; conditions: for MIC: 18 h, 37 °C, mode of at least three experiments
# Protocol: […] […] Serially two-fold dilution (1:1) were performed across subsequent wells to a final volume of 50 μL. […] […] The plates were sealed with parafilm to minimize evaporation and incubated at 37 °C for 18 h. The minimum inhibitory concentration (MIC) was visually determined as the lowest peptide concentration in a well with no visible bacterial growth. Data are reported as the mode of at least three independent experiments.
# [7] = system: K. pneumoniae ATCC 700603; assay: BONCAT: HPG incorporation into newly synthesized proteins, flow cytometry; assay type: cell-based, Klebsiella pneumoniae; conditions: compound at MIC, 10 min pre-incubation then 30 min HPG; untreated = 100%; mean, n ≥ 3
# Protocol: as §3
# as §4, with “Finally, each sample was washed with PBS once (centrifuged at 16,000 × g for 5 min) and resuspended in 1 mL PBS.” left out
# An overnight culture of E. coli ATCC 25922, or of K. pneumoniae ATCC 700603, prepared as described above, was diluted to a final concentration of 5 × 10^6 CFU/mL and allowed to adjust for 30 min at 37 °C under shaking. Membrane permeabilization of bacteria was then assessed by incubating bacteria at 37 °C, in a final volume of 1 mL, with varying concentrations of each peptide or antibiotic used for the BONCAT assay. […] The fluorescence of untreated cells was used to establish the gating for positive PI-stained cells. […]
# [8] = Mueller Hinton, 2,5x10^5 CFU/mL
compound,measurement,setting,value
CCO [Ethanol],Membrane permeabilization (% PI +cells),[1],96%
same,Membrane permeabilization (% PI +cells),[2],78%
same,Membrane permeabilization (% PI +cells),[2]; listed as EtOH,78%
"CCn1cc(C(=O)O)c(=O)c2ccc(C)nc21 [NDX, Nalidixic Acid]",MIC,"[3]; Escherichia coli, ATCC25922, 18 h, supplemented M9 medium, 5 × 10^6 CFU/mL, visual, read-out: MIC",16 µM
same,PAE,[4],0.8 ± 0.4 h
same,Membrane permeabilization (% PI +cells),[2],<1%
same,Fluorescence Intensity (% of Control),[5],107 % of Control
same,Decrease in fluorescence compared to untreated bacteria,[5],did not affect fluorescence intensity
"CN(C)[C@@H]1C(O)=C(C(N)=O)C(=O)[C@@]2(O)C(O)=C3C(=O)c4c(O)cccc4[C@@](C)(O)[C@H]3C[C@@H]12 [TET, tetracycline]",MIC,"[6]; Klebsiella pneumoniae, ATCC700603, supplemented M9 medium, 5 × 10^6 CFU/mL, visual",32 µM
same,Fluorescence Intensity (% of Control),[7],37 % of Control
same,Membrane permeabilization (% PI +cells),[1],<1%
Colistin,MIC,[6]; [8],1 µM
same,"Fold increase in MIC, BONCAT conditions vs standard conditions","[6]; supplemented M9 5×10^6 CFU/well vs MHB 2,5×10^5 CFU/well",16 fold
same,MIC,"[6]; supplemented M9 medium, 5 × 10^6 CFU/mL, visual",16 µM
same,Fold increase in MIC on 20-fold increase in cell density,"[3]; MHB, 5×10^6 vs 2,5×10^5 CFU/well",4-8 fold
same,MIC,[3]; [8],"0,5 * µM"
same,MIC,"[3]; Mueller Hinton, 5x10^6 CFU/mL, read-out: MIC",4 µM
same,Fold increase in MIC in M9 medium compared to MHB,[3]; same bacterial concentration,2-4 fold
same,MIC,"[3]; supplemented M9 medium, 5 × 10^6 CFU/mL, visual, read-out: MIC",16 µM
same,Permeabilized cells (PI+),"[2]; colistin 0,5 µM (MIC) at 2,5x10^5 CFU/mL, 40 minutes of incubation",around 50%
same,Membrane permeabilization (% PI +cells),[2],1%
same,Membrane permeabilization (% PI +cells),[2]; listed as Colistin,1%
same,Membrane permeabilization (% PI +cells),[2]; listed as colistin,no membrane permeabilization
same,Fluorescence Intensity (% of Control),[5],87 % of Control
same,Decrease in fluorescence compared to untreated bacteria,[5],nor decreased bacterial fluorescence
